Consider 35 compounds from US8669249B2, “Poly (ADP-ribose) polymerase (PARP) inhibitors” (Takeda Pharmaceutical Company Limited, priority 2009, dated 2014).

Where only a bound is given, the exact number is not on record here.

The target in this test is T1, catalytic domain of Human PARP (Homo sapiens, UniProt P09874).
T1 construct: The catalytic domain of Human PARP was cloned and prepared; made in house
T1 sequence (P09874 788-1014 limits assumed): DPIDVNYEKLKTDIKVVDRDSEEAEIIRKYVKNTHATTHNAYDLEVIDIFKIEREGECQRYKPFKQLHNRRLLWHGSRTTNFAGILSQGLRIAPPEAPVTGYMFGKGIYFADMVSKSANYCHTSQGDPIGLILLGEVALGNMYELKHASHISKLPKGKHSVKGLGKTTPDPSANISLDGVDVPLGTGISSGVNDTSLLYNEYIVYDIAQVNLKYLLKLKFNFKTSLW
Put plainly: Biacore surface plasmon resonance affinity assay. It is filed as binding. The conditions noted are these: pKD=-log10 KD, KD in mol/L; Biacore T100, 25° C.; read-out: pKD (converted). On the procedure:
Dissociation Constant (KD) from Surface Plasmon Resonance
The catalytic domain of Human PARP was cloned and prepared as described in Kinoshita, et al. FEBS Letters (2006), 556:43-46. Purified enzyme was stored at −80° C. in 25 mM Tris(hydroxymethyl)aminomethane (‘Tris’) pH 7.4, 150 mM NaCl, 2 mM dithiothreitol (DTT) at a concentration of 6 mg/mL.
Biacore affinity assays for test compounds were conducted on a Biacore T100 (GE Healthcare) as follows. A Series S Sensor Chip CM5 (part number BR-1006-68, GE Healthcare) was activated for amide coupling with an Amine Coupling Kit (part number BR-1000-50, GE Healthcare) as described by the manufacturer. The mobile phase buffer consisted of Biacore buffer HBS-P (part number BR-1003-68, GE Healthcare) supplemented with 1% v/v dimethylsulfoxide (DMSO), 0.5 mM Tris(2-carboxyethyl)phosphine hydrochloride (TCEP), and 5 mM MgCl2. Enzyme samples (2 μL/6 mg/mL) stored at −80° C. were diluted to 0.080 mg/mL with 10 mM 4-morpholineethanesulfonic acid (MES) pH 6.5 and then mounted on the activated Biacore CM5 chip at a flow rate of 10 μL/min for 240 seconds. […] Test compounds were diluted 9 times 2-fold serially in mobile phase buffer (listed above) at 1% v/v DMSO final to generate a concentration gradient bracketing their anticipated KDs. Biacore mounted PARP was given a 1 minute exposure (association phase) to various concentrations of test compounds to observe a steady state equilibrium or an on-rate. The exposure was followed with a dissociation phase of 5 minutes. The association and dissociation phases were at a flow rate of 50 μL/min and a temperature of 25° C.
Parameters Rmax (response at saturation) and KD (binding constant) were calculated through a nonlinear least squares fitting of the equation to the data by use of the Biacore T100 analysis software.
Parameter optimization was through a nonlinear least squares analysis of the association phase Response=Rmax*(1−exp(−(kon[cmpd]+koff)*t)) and dissociation phase Response=[…] by use of the Biacore T100 analysis software. The binding constant KD was calculated from the definition KD=koff/kon
For `O=C1COc2ccc(C(=O)CN3CCOCC3)cc2N1` [Compound 112, 6-(2-morpholinoacetyl)-2H-benzo[b][1,4]oxazin-3(4H)-one], the Kd was at least 100 µM. Regarding `O=C1COc2ccc(CCN3CCN(c4ccncc4)CC3)cc2N1` [Compound 128, 6-(2-(4-(Pyridin-4-yl)piperazin-1-yl)ethyl)-2H-benzo[b][1,4]oxazin-3(4H)-one], the Kd was 12.6 to 79.4 µM. As for `O=C1Nc2cc(CN3CC=C(c4ccccc4)CC3)ccc2OC1F` (centres unmarked) [Compound 100, 2-Fluoro-6-((4-phenyl-5,6-dihydropyridin-1(2H)-yl)methyl)-2H-benzo[b][1,4]oxazin-3(4H)-one], the figure is 0.0126 to 0.1 µM; as for `O=C1COc2ccc(CCN3CCN(c4nc5ccccc5[nH]4)CC3)cc2N1` [Compound 129, 6-(2-(4-(1H-Benzo[d]imidazol-2-yl)piperazin-1-yl)ethyl)-2H-benzo[b][1,4]oxazin-3(4H)-one], 12.6 to 79.4 µM; as for `O=C1COc2ccc(CNCC3CCCCC3)cc2N1` [Compound 30, 6-((Cyclohexylmethylamino)methyl)-2H-benzo[b][1,4]oxazin-3(4H)-one], 1.26 to 10 µM. As for `CC1Oc2ccc(-c3ccc(C(=O)NC4CCCCC4)cc3)cc2NC1=O` (centres unmarked) [Compound 153, N-Cyclohexyl-4-(2-methyl-3-oxo-3,4-dihydro-2H-benzo[b][1,4]oxazin-6-yl)benzamide], the figure is over 10 µM; as for `CCC1Oc2ccc(CN3CCN(c4ccncc4)CC3)cc2NC1=O` (centres unmarked) [Compound 195, 2-Ethyl-6-((4-(pyridin-4-yl)piperazin-1-yl)methyl)-2H-benzo[b][1,4]oxazin-3(4H)-one], at least 100 µM. As for `CC1Oc2ccc(CN(C)Cc3ccc(F)cc3)cc2NC1=O` (centres unmarked) [Compound 73, 6-(((4-Fluorobenzyl)(methyl)amino)methyl)-2-methyl-2H-benzo[b][1,4]oxazin-3(4H)-one], the figure is 1.26 to 10 µM; as for `CC1Oc2cc(CN3CCC(c4ccc(Cl)cc4)CC3)ccc2NC1=O` (centres unmarked) [Compound 200, 7-((4-(4-Chlorophenyl)piperidin-1-yl)methyl)-2-methyl-2H-benzo[b][1,4]oxazin-3(4H)-one], 12.6 to 79.4 µM. `CC1Oc2cc(CN3CC=C(c4ccc(F)cc4)CC3)ccc2NC1=O` (centres unmarked) [Compound 201, 7-((4-(4-Fluorophenyl)-5,6-dihydropyridin-1(2H)-yl)methyl)-2-methyl-2H-benzo[b][1,4]oxazin-3(4H)-one]: the Kd is at least 100 µM.

As for `O=C1COc2ccc(S(=O)(=O)N3CCCC3)cc2N1` [Compound 117, 6-(Pyrrolidin-1-ylsulfonyl)-2H-benzo[b][1,4]oxazin-3(4H)-one], the Kd was 1.26 to 10 µM.

Consider `CC1Oc2ccc(CN(C)CC(=O)NCc3ccccc3)cc2NC1=O` (centres unmarked) [Compound 134, N-Benzyl-2-(methyl((2-methyl-3-oxo-3,4-dihydro-2H-benzo[b][1,4]oxazin-6-yl)methyl)amino)acetamide], for which the Kd is 1.26 to 10 µM. For `O=C1COc2ccc(CCN3CCC(c4ccc(F)cc4)CC3)cc2N1` [Compound 130, 6-(2-(4-(4-Fluorophenyl)piperidin-1-yl)ethyl)-2H-benzo[b][1,4]oxazin-3(4H)-one], the Kd was 1.26 to 10 µM.

For the compound `CC1Oc2ccc(CN(C)CC(=O)N(C)Cc3ccc(Cl)cc3)cc2NC1=O` (centres unmarked) [Compound 137, N-(4-Chlorobenzyl)-N-methyl-2-(methyl((2-methyl-3-oxo-3,4-dihydro-2H-benzo[b][1,4]oxazin-6-yl)methyl)amino)acetamide], the Kd is at least 100 µM. As for `O=C1COc2ccc(CN3CCC(c4ccccc4)CC3)cc2N1` [Compound 25, 6-((4-Phenylpiperidin-1-yl)methyl)-2H-benzo[b][1,4]oxazin-3(4H)-one], the figure is 0.126 to 1 µM; as for `CC1Oc2cc(CN3CCC(c4ccccc4N)CC3)ccc2NC1=O` (centres unmarked) [Compound 204, 7-((4-(2-aminophenyl)piperidin-1-yl)methyl)-2-methyl-2H-benzo[b][1,4]oxazin-3(4H)-one], 12.6 to 79.4 µM. With `CC1Oc2ccc(CN(C)Cc3ccccc3)cc2NC1=O` (centres unmarked) [Compound 64, 6-((Benzyl(methyl)amino)methyl)-2-methyl-2H-benzo[b][1,4]oxazin-3(4H)-one] the figure was 12.6 to 79.4 µM; with `CC1Oc2ccc(CN3CCC(c4cccc(C(=O)O)c4)CC3)cc2NC1=O` (centres unmarked) [Compound 215, 3-(1-((2-Methyl-3-oxo-3,4-dihydro-2H-benzo[b][1,4]oxazin-6-yl)methyl)piperidin-4-yl)benzoic acid], at least 100 µM; with `CCOC(=O)CN(C)Cc1ccc2c(c1)NC(=O)C(C)O2` (centres unmarked) [Compound 88, Ethyl 2-(methyl((2-methyl-3-oxo-3,4-dihydro-2H-benzo[b][1,4]oxazin-6-yl)methyl)amino)acetate], 12.6 to 79.4 µM. On to `CC1Oc2ccc(CN3CCN(c4nc(-c5ccccc5)ns4)CC3)cc2NC1=O` (centres unmarked) [Compound 39, 2-Methyl-6-((4-(3-phenyl-1,2,4-thiadiazol-5-yl)piperazin-1-yl)methyl)-2H-benzo[b][1,4]oxazin-3(4H)-one], for which the Kd is over 10 µM. With `CC1Oc2ccc(CN(C)CC(=O)NCC3CCCCC3)cc2NC1=O` (centres unmarked) [Compound 140, N-(Cyclohexylmethyl)-2-(methyl((2-methyl-3-oxo-3,4-dihydro-2H-benzo[b][1,4]oxazin-6-yl)methyl)amino)acetamide], the Kd is 1.26 to 10 µM. Regarding `CC1Oc2ccc(CN3CCN(c4ccc(C(=O)O)cc4)CC3)cc2NC1=O` (centres unmarked) [Compound 50, 4-(4-((2-Methyl-3-oxo-3,4-dihydro-2H-benzo[b][1,4]oxazin-6-yl)methyl)piperazin-1-yl)benzoic acid], the Kd is 0.0126 to 0.1 µM. Consider `O=C1COc2ccc(CN3CCOCC3)cc2N1` [Compound 26, 6-(Morpholinomethyl)-2H-benzo[b][1,4]oxazin-3(4H)-one], for which the Kd is 1.26 to 10 µM.

Regarding `CC1Oc2ccc(-c3cccc(C(=O)NCc4ccccc4)c3)cc2NC1=O` (centres unmarked) [Compound 147, N-Benzyl-3-(2-methyl-3-oxo-3,4-dihydro-2H-benzo[b][1,4]oxazin-6-yl)benzamide], the Kd was over 10 µM. With `CC1Oc2cc(CN3CCC(c4nc5ccccc5[nH]4)CC3)ccc2NC1=O` (centres unmarked) [Compound 203, 7-((4-(1H-Benzo[d]imidazol-2-yl)piperidin-1-yl)methyl)-2-methyl-2H-benzo[b][1,4]oxazin-3(4H)-one] the figure was at least 100 µM; with `O=C1COc2ccc(S(=O)(=O)N3CCCCC3)cc2N1` [Compound 115, 6-(piperidin-1-ylsulfonyl)-2H-benzo[b][1,4]oxazin-3(4H)-one], at least 100 µM; with `O=C1COc2ccc(C(=O)NC3CCCCC3)cc2N1` [Compound 111, N-Cyclohexyl-3-oxo-3,4-dihydro-2H-benzo[b][1,4]oxazine-6-carboxamide], at least 100 µM. `CC1Oc2ccc(-c3ccc(C(N)=O)cc3)cc2NC1=O` (centres unmarked) [Compound 150, 4-(2-Methyl-3-oxo-3,4-dihydro-2H-benzo[b][1,4]oxazin-6-yl)benzamide]: the Kd was over 10 µM. Turning to `CC1Oc2ccc(-c3cccc(C(=O)N4CCCC4)c3)cc2NC1=O` (centres unmarked) [Compound 145, 2-Methyl-6-(3-(pyrrolidine-1-carbonyl)phenyl)-2H-benzo[b][1,4]oxazin-3(4H)-one], the Kd is over 10 µM. In the case of `CC1Oc2ccc(CN3CCC(c4ccc(C(=O)O)cc4)CC3)cc2NC1=O` (centres unmarked) [Compound 216, 4-(1-((2-Methyl-3-oxo-3,4-dihydro-2H-benzo[b][1,4]oxazin-6-yl)methyl)piperidin-4-yl)benzoic acid], the Kd is 1.26 to 10 µM. As for `O=C1COc2ccc(CCN3CCC(c4ccccc4)CC3)cc2N1` [Compound 125, 6-(2-(4-Phenylpiperidin-1-yl)ethyl)-2H-benzo[b][1,4]oxazin-3(4H)-one], the figure is 12.6 to 79.4 µM. On to `COC(=O)CN1CCN(Cc2ccc3c(c2)NC(=O)C(C)O3)CC1=O` (centres unmarked) [Compound 78, Methyl 2-(4-((2-methyl-3-oxo-3,4-dihydro-2H-benzo[b][1,4]oxazin-6-yl)methyl)-2-oxopiperazin-1-yl)acetate], for which the Kd is 1.26 to 10 µM.

Take `CC1Oc2ccc(CN3CCN(C4CCCCCC4)CC3)cc2NC1=O` (centres unmarked) [Compound 51, 6-((4-Cycloheptylpiperazin-1-yl)methyl)-2-methyl-2H-benzo[b][1,4]oxazin-3(4H)-one]: the Kd was 0.126 to 1 µM. Turning to `CC1Oc2ccc(CN3CCN(CC(=O)NS(C)(=O)=O)CC3)cc2NC1=O` (centres unmarked) [Compound 181, 2-(4-((2-Methyl-3-oxo-3,4-dihydro-2H-benzo[b][1,4]oxazin-6-yl)methyl)piperazin-1-yl)-N-(methylsulfonyl)acetamide], the Kd was over 10 µM. In the case of `CC1Oc2ccc(CN3Cc4ccc(F)cc4C3)cc2NC1=O` (centres unmarked) [Compound 241, 6-((5-Fluoroisoindolin-2-yl)methyl)-2-methyl-2H-benzo[b][1,4]oxazin-3(4H)-one], the Kd was at most 0.01 µM.
